Experimental data: patent US20210338787A1 (priority 2020, published 2021)
Structures can show the parent of a compound that is named as a salt. Where two headings read alike, the source gives them in different places.

B1: secretory leukocyte protease inhibitor (protein, UniProt P03973 26-132, looked up)
Antileukoproteinase: SGKSFKAGVCPPKKSAQCLRYKKPECQSDWQCPGKKRCCPDTCGIKCLDPVDTPNPTRRKPGKCPVTYGQCLMLNPPNFCEMDGQCKRDLKCCMGMCGKSCVSPVKA

What was measured:
SARS-CoV-2 [1] = assay type: cell-based
SARS-CoV-2 [2] = assay type: cell-based; conditions: Calu-3 cells
Caco-2 cells = conditions: tested concentrations (data not shown)
TMPRSS2 = target: T1, TMPRSS2 (Homo sapiens, UniProt O15393); assay: TMPRSS2 proteolytic activity in TMPRSS2-overexpressing HEK-293T cells, fluorogenic substrate BOC-QAR-AMC; assay type: cell-based
T1 construct: expressed in transfected cells; host or cells: HEK-293T
T1 sequence (O15393 whole entry): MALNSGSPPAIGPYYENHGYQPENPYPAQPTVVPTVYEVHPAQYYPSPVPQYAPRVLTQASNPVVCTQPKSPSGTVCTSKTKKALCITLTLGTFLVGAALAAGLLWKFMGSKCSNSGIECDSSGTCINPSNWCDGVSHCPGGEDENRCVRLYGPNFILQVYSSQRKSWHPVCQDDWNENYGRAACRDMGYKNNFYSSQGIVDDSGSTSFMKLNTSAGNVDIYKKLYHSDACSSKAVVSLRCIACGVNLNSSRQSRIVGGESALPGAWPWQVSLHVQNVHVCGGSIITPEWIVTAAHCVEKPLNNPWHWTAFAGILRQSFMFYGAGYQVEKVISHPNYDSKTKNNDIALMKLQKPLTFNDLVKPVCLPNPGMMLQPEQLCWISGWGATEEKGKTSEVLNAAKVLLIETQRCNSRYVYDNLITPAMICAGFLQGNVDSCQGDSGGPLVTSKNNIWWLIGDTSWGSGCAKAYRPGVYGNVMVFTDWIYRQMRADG
Description: B. Arbitrary fluorescence unit (AFU) measurements of control or TMPRSS-overexpressing cells incubated with BOC-QAR-AMC for 75 minutes at 37° C. are shown. Wells containing PBS and BOC-QAR-AMC were used as background fluorescence reads. C. Fluorescence of control or TMPRSS2-overexpressing cells was measured every 15 minutes for a total time of 180 minutes. D. The average proteolytic activity rate per minute of control or TMPRSS2-overexpressing cells. The fluorescent signal was measured by the UV filter (excitation 365 nm and emission 410 nm).
The results in A-C are presented as the means±SE from at least 3 independent experiments performed in duplicate and/or triplicate.
The following describes the development of an experimental framework for quantifying TMPRSS2 proteolytic activity. TMPRSS2 with a C-terminal V5 tag was overexpressed in a human cell line, HEK-293T, because of its high transfectability.
The effect of protease inhibitors on TMPRSS2 activity was tested.

HEK-293T cells = assay type: cell-based, human; conditions: tested concentrations (data not shown)

Molecule	decrease in viral load (genomic SARS-CoV-2 from intracellular RNA) compared with untreated control cells (SARS-CoV-2 [1]; Caco-2 cells, 10 μM, twenty hours after infection) [fold]	SARS-CoV-2 plaque formation (SARS-CoV-2 [2]; 24 hours after infection)	SARS-CoV-2 plaque formation (SARS-CoV-2 [2]; 48 hours after infection)	toxicity in Caco-2 cells (Caco-2 cells)	IC50 (TMPRSS2; BOC-QAR-AMC, read-out: IC50 of inhibition of TMPRSS2 proteolytic activity) [nM]	toxic effects in viability assays (HEK-293T cells)	decrease in viral load (genomic SARS-CoV-2 from intracellular RNA) compared with untreated control cells (SARS-CoV-2 [1]) [fold]	inhibition of TMPRSS2 proteolytic activity (TMPRSS2; all tested concentrations)
CN(C)C(=O)COC(=O)Cc1ccc(OC(=O)c2ccc(NC(=N)N)cc2)cc1 [camostat mesylate, reference compound]	−3.9	decreased SARS-CoV-2 plaque formation	effect of camostat lasted	nontoxic				
alpha 1 antitrypsin [A1AT]				nontoxic	357	did not demonstrate toxic effects	−2.6	
B1								none of the tested concentrations of SLPI inhibited TMPRSS2 proteolytic activity
